Measured values taken from ChEMBL document CHEMBL5303766, “Data for DCP probe FHT-2344” (2022).

Legend:
[1] = molecular target: Casein kinase II subunit alpha (Homo sapiens) (UniProt P68400); test: CSNK2A1A SGC Tm panel (DSF); conditions: for ΔTm: Compound concentration 10.0 uM
[2] = molecular target: Calcium/calmodulin-dependent protein kinase type II subunit delta (Homo sapiens) (UniProt Q13557); test: CAMK2D SGC Tm panel (DSF); conditions: for ΔTm: Compound concentration 10.0 uM
[3] = molecular target: Death-associated protein kinase 3 (Homo sapiens) (UniProt O43293); test: DAPK3 SGC Tm panel (DSF); conditions: for ΔTm: Compound concentration 10.0 uM
[4] = molecular target: Glycogen synthase kinase-3 beta (Homo sapiens) (UniProt P49841); test: GSK3B SGC Tm panel (DSF); conditions: for ΔTm: Compound concentration 10.0 uM
[5] = molecular target: Dual specificity mitogen-activated protein kinase kinase 1 (Homo sapiens) (UniProt Q02750); test: MAP2K1 SGC Tm panel (DSF); conditions: for ΔTm: Compound concentration 10.0 uM
[6] = molecular target: T1, Dual specificity mitogen-activated protein kinase kinase 6 (Homo sapiens) (UniProt P52564); test: MAP2K6 SGC Tm panel (DSF); conditions: for ΔTm: Compound concentration 10.0 uM
T1 sequence (whole entry): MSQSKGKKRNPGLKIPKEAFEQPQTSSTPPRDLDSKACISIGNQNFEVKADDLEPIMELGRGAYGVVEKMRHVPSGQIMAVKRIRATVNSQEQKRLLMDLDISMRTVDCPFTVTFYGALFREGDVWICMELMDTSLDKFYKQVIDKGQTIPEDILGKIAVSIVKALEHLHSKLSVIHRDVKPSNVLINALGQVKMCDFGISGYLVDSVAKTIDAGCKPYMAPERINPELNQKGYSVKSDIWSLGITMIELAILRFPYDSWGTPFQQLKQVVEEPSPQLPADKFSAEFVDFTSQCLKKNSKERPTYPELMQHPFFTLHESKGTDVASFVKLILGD

[7] = molecular target: Serine/threonine-protein kinase pim-3 (Homo sapiens) (UniProt Q86V86); test: PIM3 SGC Tm panel (DSF); conditions: for ΔTm: Compound concentration 10.0 uM
[8] = molecular target: Serine/threonine-protein kinase 26 (Homo sapiens) (UniProt Q9P289); test: MST4 SGC Tm panel (DSF); conditions: for ΔTm: Compound concentration 10.0 uM
[9] = molecular target: Serine/threonine-protein kinase pim-1 (Homo sapiens) (UniProt P11309); test: PIM1 SGC Tm panel (DSF); conditions: for ΔTm: Compound concentration 10.0 uM
[10] = molecular target: Calcium/calmodulin-dependent protein kinase type 1G (Homo sapiens) (UniProt Q96NX5); test: CAMK1G SGC Tm panel (DSF); conditions: for ΔTm: Compound concentration 10.0 uM
[11] = molecular target: Cyclin-dependent kinase 16 (Homo sapiens) (UniProt Q00536); test: PCTK1 SGC Tm panel (DSF); conditions: for ΔTm: Compound concentration 10.0 uM
Peregrin (Homo sapiens) = molecular target: T2, Peregrin (Homo sapiens) (UniProt P55201); test: BRPF1 SGC Tm panel (DSF); conditions: for ΔTm: Compound concentration 10.0 uM
T2 sequence (whole entry): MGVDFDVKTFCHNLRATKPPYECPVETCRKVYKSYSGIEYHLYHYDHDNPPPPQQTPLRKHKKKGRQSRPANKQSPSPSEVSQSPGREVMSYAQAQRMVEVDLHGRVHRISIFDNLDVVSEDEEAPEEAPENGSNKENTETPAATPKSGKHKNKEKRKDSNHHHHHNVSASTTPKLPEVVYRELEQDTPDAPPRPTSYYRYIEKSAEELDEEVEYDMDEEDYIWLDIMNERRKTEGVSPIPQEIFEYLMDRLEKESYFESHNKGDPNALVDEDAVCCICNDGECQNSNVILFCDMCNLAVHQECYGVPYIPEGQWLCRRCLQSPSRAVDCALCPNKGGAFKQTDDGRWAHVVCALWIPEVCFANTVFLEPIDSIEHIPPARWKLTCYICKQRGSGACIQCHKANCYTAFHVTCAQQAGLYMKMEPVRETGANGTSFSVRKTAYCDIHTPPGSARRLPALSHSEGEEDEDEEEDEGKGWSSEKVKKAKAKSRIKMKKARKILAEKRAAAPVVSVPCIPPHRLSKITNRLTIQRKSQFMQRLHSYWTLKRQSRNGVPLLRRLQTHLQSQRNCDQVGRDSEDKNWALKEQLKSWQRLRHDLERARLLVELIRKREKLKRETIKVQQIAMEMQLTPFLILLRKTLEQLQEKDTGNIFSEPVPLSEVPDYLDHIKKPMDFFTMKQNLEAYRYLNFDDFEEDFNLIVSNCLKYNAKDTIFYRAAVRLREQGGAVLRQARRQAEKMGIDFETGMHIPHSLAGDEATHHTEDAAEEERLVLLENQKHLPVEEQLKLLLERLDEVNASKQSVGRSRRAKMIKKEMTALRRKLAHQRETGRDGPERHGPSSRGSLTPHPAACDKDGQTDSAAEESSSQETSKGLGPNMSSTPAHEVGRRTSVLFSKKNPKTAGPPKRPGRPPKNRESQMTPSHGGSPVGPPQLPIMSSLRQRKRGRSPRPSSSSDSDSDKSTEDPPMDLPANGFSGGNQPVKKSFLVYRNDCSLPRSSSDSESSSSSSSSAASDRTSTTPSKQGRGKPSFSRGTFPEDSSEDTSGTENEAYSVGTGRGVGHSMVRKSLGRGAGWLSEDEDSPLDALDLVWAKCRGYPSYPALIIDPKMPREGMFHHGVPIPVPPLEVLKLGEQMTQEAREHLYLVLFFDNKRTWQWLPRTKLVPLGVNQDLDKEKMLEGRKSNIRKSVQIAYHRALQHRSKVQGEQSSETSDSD

[12] = molecular target: Casein kinase I isoform epsilon (Homo sapiens) (UniProt P49674); test: CSNK1E SGC Tm panel (DSF); conditions: for ΔTm: Compound concentration 10.0 uM
[13] = molecular target: 5-hydroxytryptamine receptor 1D (Homo sapiens) (UniProt P28221); conditions: Compound concentration 10.0 uM
[14] = molecular target: 5-hydroxytryptamine receptor 5A (Homo sapiens) (UniProt P47898); conditions: Compound concentration 10.0 uM
[15] = molecular target: D(3) dopamine receptor (Homo sapiens) (UniProt P35462); conditions: Compound concentration 10.0 uM
[16] = molecular target: Delta-type opioid receptor (Homo sapiens) (UniProt P41143); conditions: Compound concentration 10.0 uM
[17] = molecular target: Alpha-1A adrenergic receptor (Homo sapiens) (UniProt P35348); conditions: Compound concentration 10.0 uM
[18] = molecular target: Alpha-2C adrenergic receptor (Homo sapiens) (UniProt P18825); conditions: Compound concentration 10.0 uM
[19] = molecular target: GABA-A receptor; anion channel (Rattus norvegicus) (UniProt O09028+P15431+P18506+P18508+P19969+P20236+P23574+P23576+P28471+P28473+P30191+P62813+P63079+P63138+Q91ZM7+Q9ES14); conditions: Compound concentration 10.0 uM
[20] = molecular target: Sigma non-opioid intracellular receptor 1 (Homo sapiens, UniProt Q99720); conditions: Compound concentration 10.0 uM
Sigma non-opioid intracellular receptor 1, sequence (Q99720 whole entry): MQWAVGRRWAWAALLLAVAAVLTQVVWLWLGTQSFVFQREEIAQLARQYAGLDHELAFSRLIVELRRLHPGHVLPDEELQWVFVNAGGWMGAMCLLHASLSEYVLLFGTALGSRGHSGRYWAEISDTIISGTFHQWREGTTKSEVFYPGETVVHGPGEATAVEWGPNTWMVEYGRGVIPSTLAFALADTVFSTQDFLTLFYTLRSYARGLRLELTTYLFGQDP

Dual specificity mitogen-activated protein kinase kinase 1 (Homo sapiens), sequence (Q02750 whole entry): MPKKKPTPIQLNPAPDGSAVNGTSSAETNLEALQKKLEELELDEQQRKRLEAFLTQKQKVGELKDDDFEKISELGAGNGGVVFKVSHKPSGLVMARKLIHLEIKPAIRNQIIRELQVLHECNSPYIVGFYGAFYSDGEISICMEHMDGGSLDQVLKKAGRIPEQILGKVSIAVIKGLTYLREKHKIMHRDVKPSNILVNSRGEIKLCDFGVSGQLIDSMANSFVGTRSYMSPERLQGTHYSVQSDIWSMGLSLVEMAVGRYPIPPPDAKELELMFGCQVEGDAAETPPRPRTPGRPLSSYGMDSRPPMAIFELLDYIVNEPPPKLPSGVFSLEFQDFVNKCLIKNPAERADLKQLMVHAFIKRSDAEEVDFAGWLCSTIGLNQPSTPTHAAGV
Death-associated protein kinase 3 (Homo sapiens), sequence (O43293 whole entry, looked up): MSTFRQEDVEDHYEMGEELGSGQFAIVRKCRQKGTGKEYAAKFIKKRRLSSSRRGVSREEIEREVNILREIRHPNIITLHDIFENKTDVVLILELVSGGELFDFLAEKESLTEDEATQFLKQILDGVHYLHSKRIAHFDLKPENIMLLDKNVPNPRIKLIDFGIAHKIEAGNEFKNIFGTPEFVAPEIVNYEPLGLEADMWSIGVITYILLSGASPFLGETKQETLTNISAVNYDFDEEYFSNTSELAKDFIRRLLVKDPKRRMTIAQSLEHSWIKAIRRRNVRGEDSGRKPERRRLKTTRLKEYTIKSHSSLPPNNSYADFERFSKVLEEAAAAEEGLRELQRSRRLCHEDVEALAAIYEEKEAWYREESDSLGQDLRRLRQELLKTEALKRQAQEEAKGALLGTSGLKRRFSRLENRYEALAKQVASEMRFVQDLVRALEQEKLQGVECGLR
Serine/threonine-protein kinase 26 (Homo sapiens), sequence (Q9P289 2-416 limits assumed): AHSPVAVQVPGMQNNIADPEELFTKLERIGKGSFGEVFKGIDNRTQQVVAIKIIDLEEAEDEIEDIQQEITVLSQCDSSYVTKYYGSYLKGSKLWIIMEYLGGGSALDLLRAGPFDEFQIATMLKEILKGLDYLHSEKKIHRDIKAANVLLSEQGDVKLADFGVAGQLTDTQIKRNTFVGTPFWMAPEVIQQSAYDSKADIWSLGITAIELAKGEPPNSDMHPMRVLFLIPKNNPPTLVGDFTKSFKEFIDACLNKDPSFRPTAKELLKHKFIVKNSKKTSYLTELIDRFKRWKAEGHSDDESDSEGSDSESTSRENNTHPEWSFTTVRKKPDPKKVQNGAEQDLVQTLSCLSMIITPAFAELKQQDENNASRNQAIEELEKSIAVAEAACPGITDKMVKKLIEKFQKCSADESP
Calcium/calmodulin-dependent protein kinase type II subunit delta (Homo sapiens), sequence (Q13557 whole entry): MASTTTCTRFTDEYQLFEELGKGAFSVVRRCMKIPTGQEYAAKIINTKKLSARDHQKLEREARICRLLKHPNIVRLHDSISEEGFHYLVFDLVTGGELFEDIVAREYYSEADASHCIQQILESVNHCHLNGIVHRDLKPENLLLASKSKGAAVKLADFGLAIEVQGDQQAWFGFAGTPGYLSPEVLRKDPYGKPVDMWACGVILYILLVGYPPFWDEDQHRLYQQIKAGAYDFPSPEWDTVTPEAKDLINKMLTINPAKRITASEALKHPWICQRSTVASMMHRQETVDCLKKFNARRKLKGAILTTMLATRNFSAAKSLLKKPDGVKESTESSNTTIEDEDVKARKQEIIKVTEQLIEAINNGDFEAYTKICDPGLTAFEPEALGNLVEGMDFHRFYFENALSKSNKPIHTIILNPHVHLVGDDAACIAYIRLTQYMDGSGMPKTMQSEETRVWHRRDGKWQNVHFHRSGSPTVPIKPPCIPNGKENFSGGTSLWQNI
Serine/threonine-protein kinase pim-1 (Homo sapiens), sequence (P11309 whole entry, looked up): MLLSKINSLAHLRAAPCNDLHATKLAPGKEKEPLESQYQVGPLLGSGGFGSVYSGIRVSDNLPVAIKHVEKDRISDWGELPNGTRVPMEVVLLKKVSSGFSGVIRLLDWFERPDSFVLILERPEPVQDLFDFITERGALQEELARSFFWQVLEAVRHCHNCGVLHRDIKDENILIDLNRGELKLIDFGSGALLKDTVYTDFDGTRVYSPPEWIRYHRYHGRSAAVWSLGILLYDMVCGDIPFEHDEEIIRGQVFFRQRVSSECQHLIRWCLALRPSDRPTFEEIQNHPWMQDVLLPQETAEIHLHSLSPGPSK
Calcium/calmodulin-dependent protein kinase type 1G (Homo sapiens), sequence (Q96NX5 whole entry): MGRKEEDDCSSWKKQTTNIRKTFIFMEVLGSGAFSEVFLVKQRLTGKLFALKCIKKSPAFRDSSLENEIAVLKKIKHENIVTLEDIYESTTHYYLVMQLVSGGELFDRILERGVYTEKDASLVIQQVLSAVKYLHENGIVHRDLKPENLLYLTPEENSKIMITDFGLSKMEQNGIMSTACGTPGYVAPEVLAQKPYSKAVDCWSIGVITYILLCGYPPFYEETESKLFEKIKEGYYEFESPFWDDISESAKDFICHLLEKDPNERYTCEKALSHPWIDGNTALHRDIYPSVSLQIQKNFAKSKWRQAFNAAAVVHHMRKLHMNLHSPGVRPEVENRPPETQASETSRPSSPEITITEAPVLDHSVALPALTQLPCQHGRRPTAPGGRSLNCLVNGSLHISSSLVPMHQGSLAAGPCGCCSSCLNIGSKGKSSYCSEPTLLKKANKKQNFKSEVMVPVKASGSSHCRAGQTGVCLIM
Cyclin-dependent kinase 16 (Homo sapiens), sequence (Q00536 whole entry): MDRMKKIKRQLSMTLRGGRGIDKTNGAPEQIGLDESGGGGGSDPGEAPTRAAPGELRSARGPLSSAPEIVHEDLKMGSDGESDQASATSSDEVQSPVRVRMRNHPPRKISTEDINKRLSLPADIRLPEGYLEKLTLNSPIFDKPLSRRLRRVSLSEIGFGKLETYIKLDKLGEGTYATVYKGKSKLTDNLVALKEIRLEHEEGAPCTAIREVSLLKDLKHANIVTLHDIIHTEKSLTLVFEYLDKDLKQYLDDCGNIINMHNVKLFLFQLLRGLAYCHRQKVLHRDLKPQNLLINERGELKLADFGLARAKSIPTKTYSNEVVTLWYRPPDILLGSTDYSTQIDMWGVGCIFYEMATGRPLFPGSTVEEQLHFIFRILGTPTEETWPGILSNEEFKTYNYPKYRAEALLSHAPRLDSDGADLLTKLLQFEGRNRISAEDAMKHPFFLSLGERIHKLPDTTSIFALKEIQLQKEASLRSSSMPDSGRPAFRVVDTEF
Casein kinase II subunit alpha (Homo sapiens), sequence (P68400 whole entry, looked up): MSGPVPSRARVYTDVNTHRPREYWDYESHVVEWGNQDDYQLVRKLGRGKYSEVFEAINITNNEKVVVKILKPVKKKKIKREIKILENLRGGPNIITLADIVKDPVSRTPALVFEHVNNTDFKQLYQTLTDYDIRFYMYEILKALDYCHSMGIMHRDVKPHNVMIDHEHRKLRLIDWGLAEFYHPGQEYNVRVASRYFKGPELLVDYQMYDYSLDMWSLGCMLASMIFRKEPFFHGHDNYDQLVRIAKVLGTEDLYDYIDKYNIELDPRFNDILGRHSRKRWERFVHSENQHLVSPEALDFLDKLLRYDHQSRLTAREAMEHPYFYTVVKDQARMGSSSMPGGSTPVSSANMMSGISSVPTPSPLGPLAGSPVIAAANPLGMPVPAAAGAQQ
Casein kinase I isoform epsilon (Homo sapiens), sequence (P49674 whole entry, looked up, canonical isoform): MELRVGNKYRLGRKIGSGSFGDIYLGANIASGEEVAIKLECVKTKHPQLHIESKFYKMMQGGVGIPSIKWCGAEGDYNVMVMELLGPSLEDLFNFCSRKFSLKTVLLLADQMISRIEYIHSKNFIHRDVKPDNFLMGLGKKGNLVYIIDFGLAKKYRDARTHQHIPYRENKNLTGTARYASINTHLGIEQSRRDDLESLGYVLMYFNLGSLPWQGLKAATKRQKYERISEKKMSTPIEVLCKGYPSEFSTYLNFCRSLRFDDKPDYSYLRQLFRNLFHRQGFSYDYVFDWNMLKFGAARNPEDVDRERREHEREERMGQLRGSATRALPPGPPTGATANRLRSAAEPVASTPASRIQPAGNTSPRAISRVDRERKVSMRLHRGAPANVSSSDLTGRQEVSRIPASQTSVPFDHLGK
Glycogen synthase kinase-3 beta (Homo sapiens), sequence (P49841 whole entry, looked up): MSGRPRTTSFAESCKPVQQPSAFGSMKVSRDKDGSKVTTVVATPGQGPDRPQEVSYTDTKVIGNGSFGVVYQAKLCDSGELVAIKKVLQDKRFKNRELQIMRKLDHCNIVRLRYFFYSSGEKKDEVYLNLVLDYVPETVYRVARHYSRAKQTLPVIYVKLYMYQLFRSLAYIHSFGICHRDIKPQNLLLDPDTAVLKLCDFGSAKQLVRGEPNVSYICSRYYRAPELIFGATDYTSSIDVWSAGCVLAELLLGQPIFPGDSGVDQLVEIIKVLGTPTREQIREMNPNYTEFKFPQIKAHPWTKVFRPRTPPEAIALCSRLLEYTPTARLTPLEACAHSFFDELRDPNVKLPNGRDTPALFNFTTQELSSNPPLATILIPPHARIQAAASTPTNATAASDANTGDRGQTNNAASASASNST

Row | Structure (SMILES) | delta Tm Staurosporine positive control [1] | ΔTm [1] | delta Tm Staurosporine positive control [2] | ΔTm [2] | delta Tm Staurosporine positive control [3] | ΔTm [3] | delta Tm Staurosporine positive control [4] | ΔTm [4] | delta Tm Staurosporine positive control [5] | ΔTm [5] | delta Tm Staurosporine positive control [6] | ΔTm [6] | delta Tm Staurosporine positive control [7] | ΔTm [7] | delta Tm Staurosporine positive control [8] | ΔTm [8] | delta Tm Staurosporine positive control [9] | ΔTm [9] | delta Tm Staurosporine positive control [10] | ΔTm [10] | also measured
1 | C[C@H](NC(=O)c1cn(C2(C#N)CC2)cn1)C(=O)Nc1nc(-c2cccc(-c3ccn(C)n3)c2)cs1 | 2.85 | 0.0573 | 16 | 0.121 | 16.2 | -1.05 | 12.1 | 0.703 | 5.5 | -0.126 | 12.1 | 1.65 | 17.6 | 0.698 | 6.93 | -1.33 | 11.9 | -0.391 | 13.3 | 0.371 | delta Tm Staurosporine positive control [11]: 7.03; ΔTm [11]: -1.44; delta Tm Staurosporine positive control (Peregrin (Homo sapiens)): -0.0506; ΔTm (Peregrin (Homo sapiens)): -1.18; delta Tm Staurosporine positive control [12]: 3.74; ΔTm [12]: 0.73; inhibition [13]: 36%; inhibition [14]: 13.9%; inhibition [15]: 28.2%; inhibition [16]: 12.4%; inhibition [17]: 15.2%; inhibition [18]: 11.2%; inhibition [19]: 31.5%; inhibition [20]: 83.2%
2 | COC[C@H](NC(=O)c1ccn(S(C)(=O)=O)c1)C(=O)Nc1nc(-c2cccc(-c3ccn(C)n3)c2)cs1 | 2.85 | -0.131 | 16 | 0.157 | 16.2 | -1.53 | 12.1 | 0.242 | 5.5 | -0.11 | 12.1 | 1.51 | 17.6 | 0.116 | 6.93 | -1.14 | 11.9 | -0.353 | 13.3 | -0.0351 | delta Tm Staurosporine positive control [11]: 7.03; ΔTm [11]: -1.23; delta Tm Staurosporine positive control (Peregrin (Homo sapiens)): -0.0506; ΔTm (Peregrin (Homo sapiens)): -1.23; delta Tm Staurosporine positive control [12]: 3.74; ΔTm [12]: 0.508; inhibition [13]: 16.7%; inhibition [14]: 11.2%; inhibition [15]: 13%; inhibition [16]: 9.17%; inhibition [17]: 12.3%; inhibition [18]: 10.2%; inhibition [19]: 16%; inhibition [20]: 1.62%
